Measured values as given in patent publication US5482971A, “Beta3 -adrenergic agents and their use in pharmaceutical compositions” (American Cyanamid Company, priority 1993, dated 1996).

Key:
[1] = molecular target: T1, beta3 -adrenergic receptor (Rattus norvegicus, UniProt P26255); assay: β3-effect: stimulation of adipocyte lipolysis (rat epididymal fat pad cells, glycerol release); type: cell-based; conditions: rat epididymal adipocytes, 37° C., 30 minutes; concentration giving 50% of the maximum rate of lipolysis of that compound
T1 construct: Rat epididymal fat pads are excised and placed in 0.9% saline; from tissue; host or cells: collagenase-isolated adipocytes from rat epididymal fat pads
Description: (§1) Selectivity of a compound is determined using the following procedures.
The β3 -effect of the compounds is determined by their ability to stimulate adipocyte lipolysis. Rat epididymal fat pads are excised and placed in 0.9% saline. Four grams of tissue is transferred to a flask with 20 ml of aerated Krebs-Henseleit bicarbonate (KHB) buffer containing 3% fatty acid-free bovine serum albumin to which 75 mg of crude bacterial collagenase (Worthington) has been added. The tissue is incubated for about 45 minutes at 37° C. with gentle shaking. The cells are then washed three times with two volumes of KHB buffer, filtered through two layers of gauze, and brought to a final volume of 80 ml with KHB buffer. One ml aliquots of the cell suspension is added to plastic test tubes containing the appropriate additions of vehicle or compound. The cells are gassed for 1 minute with 95%O2 -5%CO2, capped, and incubated at 37° C. with continuous shaking for a total of 30 minutes. The reaction is stopped by adding 0.1 ml of 30% perchloric acid and 0.1 ml of chloroform. […] The amount of glycerol generated from the hydrolysis of endogenous triglycerides is determined in a coupled-enzyme spectrophotometric assay. […] The amount of NADH generated, which is proportional to the amount of glycerol, is determined by the increase in absorbance at 340 nm. […]

[2] = molecular target: T2, beta2 -adrenergic receptor (Rattus norvegicus, UniProt P10608); assay: Lung binding: β2-effect, membranes from rat lung, [125I]iodocyanopindolol; conditions: incubation 1 hour
T2 construct: membranes from rat lung; from tissue; host or cells: rat lung membranes
Description: as §1
(§2) Binding assays for β1 -effect are carried out by the use of membranes from rat heart, and β2 -effect by the use of membranes from rat lung by the method described in Neve, et at., J. Pharmacol. Exp. Ther., 1985, 235, 657-664 with the following exceptions:
(§3) 1. the incubation volume is 0.5 ml,
(§4) 2. the incubation time is 1 hour,
(§5) 3. the radioligand is [^125 I]iodocyanopindolol,
(§6) 4. (-)-isoproterenol (50 μM) is used to define specific binding, and
(§7) 5. the filters are washed at 4° C.

[3] = molecular target: T3, beta1 -adrenergic receptor (Rattus norvegicus, UniProt P18090); assay: Heart binding: β1-effect, membranes from rat heart, [125I]iodocyanopindolol; conditions: incubation 1 hour
T3 construct: membranes from rat heart; from tissue; host or cells: rat heart membranes
Description: as §1, §2, §3, §4, §5, §6, §7

T3 sequence (P18090 whole entry): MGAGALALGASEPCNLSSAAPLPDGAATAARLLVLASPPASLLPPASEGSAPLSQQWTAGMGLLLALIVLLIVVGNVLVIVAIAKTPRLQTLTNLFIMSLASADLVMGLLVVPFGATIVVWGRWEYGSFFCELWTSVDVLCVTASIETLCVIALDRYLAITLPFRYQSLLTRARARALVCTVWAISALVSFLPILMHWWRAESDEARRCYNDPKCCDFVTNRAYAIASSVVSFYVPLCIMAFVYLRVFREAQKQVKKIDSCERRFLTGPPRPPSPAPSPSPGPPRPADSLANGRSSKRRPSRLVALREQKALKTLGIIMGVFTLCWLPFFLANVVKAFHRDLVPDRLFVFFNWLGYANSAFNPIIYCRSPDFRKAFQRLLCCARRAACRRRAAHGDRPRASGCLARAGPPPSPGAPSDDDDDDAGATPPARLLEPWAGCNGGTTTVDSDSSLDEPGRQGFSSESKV
T1 sequence (P26255 whole entry): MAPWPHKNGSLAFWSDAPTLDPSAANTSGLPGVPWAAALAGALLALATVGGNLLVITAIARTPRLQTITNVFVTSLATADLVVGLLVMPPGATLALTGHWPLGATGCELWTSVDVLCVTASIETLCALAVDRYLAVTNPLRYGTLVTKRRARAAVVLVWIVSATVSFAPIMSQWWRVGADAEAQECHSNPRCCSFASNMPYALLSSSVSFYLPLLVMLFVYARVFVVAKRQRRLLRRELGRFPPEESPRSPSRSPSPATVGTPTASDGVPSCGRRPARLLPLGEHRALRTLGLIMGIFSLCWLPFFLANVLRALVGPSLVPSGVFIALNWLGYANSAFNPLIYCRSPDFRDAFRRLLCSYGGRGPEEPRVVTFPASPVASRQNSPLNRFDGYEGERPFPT
T2 sequence (P10608 whole entry): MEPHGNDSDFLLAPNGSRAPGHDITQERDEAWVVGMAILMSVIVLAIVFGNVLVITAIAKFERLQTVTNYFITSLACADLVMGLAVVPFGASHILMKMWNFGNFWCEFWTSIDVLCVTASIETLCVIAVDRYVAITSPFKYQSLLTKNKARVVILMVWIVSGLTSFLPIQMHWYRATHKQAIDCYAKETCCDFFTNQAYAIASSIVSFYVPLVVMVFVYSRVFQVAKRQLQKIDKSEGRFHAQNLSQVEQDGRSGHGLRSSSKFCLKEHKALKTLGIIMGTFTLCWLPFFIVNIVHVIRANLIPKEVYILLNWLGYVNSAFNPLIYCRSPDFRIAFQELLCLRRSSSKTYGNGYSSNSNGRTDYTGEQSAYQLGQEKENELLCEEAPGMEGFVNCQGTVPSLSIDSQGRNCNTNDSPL

EC50 [1]: 17 nM | IC50 [2]: 20000 nM | IC50 [3]: 19000 nM
Compound: C[C@H](CCc1ccc2c(c1)OC(C(=O)O)(C(=O)O)O2)NC[C@H](O)c1cccc(Cl)c1 [Example 3, Disodium (R,R)-5-((3-(2-(3-chlorophenyl)-2-hydroxyethyl)amino)butyl)-1,3-benzodioxole-2,2-dicarboxylate]
